For test [1], the target named is T1, Human Factor XIIa (hFXIIa) (Homo sapiens, UniProt P00748).
T1 construct: purchased Enzyme Research Laboratories
T1 sequence (P00748 373-615 limits assumed): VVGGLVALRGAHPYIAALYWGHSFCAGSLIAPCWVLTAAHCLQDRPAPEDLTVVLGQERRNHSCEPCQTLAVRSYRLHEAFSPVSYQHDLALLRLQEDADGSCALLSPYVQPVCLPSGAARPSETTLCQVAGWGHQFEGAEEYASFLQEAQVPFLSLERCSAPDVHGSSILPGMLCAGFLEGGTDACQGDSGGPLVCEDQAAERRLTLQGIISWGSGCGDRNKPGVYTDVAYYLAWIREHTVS
T1 sequence (P00748 20-372 partner limits assumed): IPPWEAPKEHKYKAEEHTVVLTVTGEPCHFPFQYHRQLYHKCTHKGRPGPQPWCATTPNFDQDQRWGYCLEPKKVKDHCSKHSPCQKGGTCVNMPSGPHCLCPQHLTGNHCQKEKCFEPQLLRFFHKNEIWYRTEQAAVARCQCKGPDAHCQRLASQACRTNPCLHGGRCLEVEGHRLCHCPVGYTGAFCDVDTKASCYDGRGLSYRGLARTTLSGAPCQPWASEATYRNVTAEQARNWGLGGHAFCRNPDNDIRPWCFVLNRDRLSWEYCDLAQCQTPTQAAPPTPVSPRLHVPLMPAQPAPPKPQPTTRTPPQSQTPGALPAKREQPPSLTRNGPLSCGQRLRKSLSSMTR
The test can be described thus: Determination of Human Factor XIIa (hFXIIa) inhibition, fluorogenic substrate IC50 assay. The class given is biochemical. Conditions: fluorogenic substrate H-DPro-Phe-Arg-AFC at Km, 25° C., read-out: Human FXIIa IC50. The procedure: Determination of Human Factor XIIa (hFXIIa) inhibition
The Km for the cleavage of the substrate by hFXIIa was determined by standard transformation of the Michaelis-Menten equation, with subsequent inhibition assays performed at substrate Km concentration.

In a further test the target is FXa (Homo sapiens, UniProt P00742). The test can be described thus: Related protease inhibition: FXa, fluorogenic substrate. The class given is biochemical. Particulars: fluorogenic substrate at Km, 25° C.; H1-H3 = % activity at 40 μM. The procedure:
Human serine protease enzyme Plasma Kallikrein, KLK1, FXa, Plasmin, Thrombin and Trypsin were assayed for enzymatic activity using an appropriate fluorogenic substrate at Km concentration, FXIa at fixed substrate concentration of 100 μM and various concentrations of the test compound.

This note sets out measurements from US20260132132A1, “3A,4,5,6-TETRAHYDRO-1 H-PYRAZOLO[3,4-C]PYRIDIN-7(7AH)-ONE DERIVATIVES AS FACTOR XIIA INHIBITORS” (KALVISTA PHARMACEUTICALS LIMITED, priority 2022, published 2026).

FXa, sequence (P00742 235-488 limits assumed): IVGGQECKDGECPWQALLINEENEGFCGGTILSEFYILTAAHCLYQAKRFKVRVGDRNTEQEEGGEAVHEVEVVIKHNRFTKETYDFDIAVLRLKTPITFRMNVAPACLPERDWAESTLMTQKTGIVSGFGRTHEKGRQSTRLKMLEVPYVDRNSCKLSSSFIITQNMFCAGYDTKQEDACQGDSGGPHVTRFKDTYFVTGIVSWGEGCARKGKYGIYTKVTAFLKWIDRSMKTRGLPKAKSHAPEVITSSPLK
FXa, sequence (P00742 41-179 partner limits assumed): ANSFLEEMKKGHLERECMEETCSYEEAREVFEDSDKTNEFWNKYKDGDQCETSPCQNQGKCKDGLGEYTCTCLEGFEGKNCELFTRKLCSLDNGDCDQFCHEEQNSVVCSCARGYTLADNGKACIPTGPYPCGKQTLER

On to `O=C(NCc1ncco1)c1nn(-c2cccc(Cl)c2)c2c1CCN(c1ccc3c(c1)CN(CCO)CC3)C2=O` [Example 1151, 1-(3-chlorophenyl)-6-(2-(2-hydroxyethyl)-1,2,3,4-tetrahydroisoquinolin-7-yl)-N-(oxazol-2-ylmethyl)-7-oxo-4,5,6,7-tetrahydro-1H-pyrazolo[3,4-c]pyridine-3-carboxamide], for which the values for the IC50 (in test [1]; on FXa) were 100 to 300 nM and 10 to 40 µM, respectively.
For `C[C@H]1CN(CCO)Cc2cc(N3CCc4c(C(=O)NCC5CC5)nn(-c5cccc(Cl)c5)c4C3=O)ccc21` [Example 1152, (R)-1-(3-chlorophenyl)-N-(cyclopropylmethyl)-6-(2-(2-hydroxyethyl)-4-methyl-1,2,3,4-tetrahydroisoquinolin-7-yl)-7-oxo-4,5,6,7-tetrahydro-1H-pyrazolo[3,4-c]pyridine-3-carboxamide] the same measures were 300 to 1000 nM and > 40 µM.
In the case of `CCN1Cc2cc(N3CCc4c(C(=O)NCC5CC5)nn(-c5cccc(Cl)c5)c4C3=O)ccc2[C@@H](C)C1` [Example 1153, (R)-1-(3-chlorophenyl)-N-(cyclopropylmethyl)-6-(2-ethyl-4-methyl-1,2,3,4-tetrahydroisoquinolin-7-yl)-7-oxo-4,5,6,7-tetrahydro-1H-pyrazolo[3,4-c]pyridine-3-carboxamide], the figures for the IC50 (in test [1]; at FXa) were 300 to 1000 nM and 10 to 40 µM, respectively.
Taken in the same sequence, the figures for `O=C(NCc1cnccc1Cl)c1nn(-c2cccc(Cl)c2)c2c1CCN(c1ccc3c(c1)CN(CCO)CC3)C2=O` [Example 1154, 1-(3-chlorophenyl)-N-((4-chloropyridin-3-yl)methyl)-6-(2-(2-hydroxyethyl)-1,2,3,4-tetrahydroisoquinolin-7-yl)-7-oxo-4,5,6,7-tetrahydro-1H-pyrazolo[3,4-c]pyridine-3-carboxamide] were 10 to 100 nM and 10 to 40 µM.
For `Cn1cc(Cl)c(CNC(=O)c2nn(-c3cccc(Cl)c3)c3c2CCN(c2ccc4c(c2)CN(CCO)CC4)C3=O)n1` [Example 1155, N-((4-chloro-1-methyl-1H-pyrazol-3-yl)methyl)-1-(3-chlorophenyl)-6-(2-(2-hydroxyethyl)-1,2,3,4-tetrahydroisoquinolin-7-yl)-7-oxo-4,5,6,7-tetrahydro-1H-pyrazolo[3,4-c]pyridine-3-carboxamide] the same measures were 10 to 100 nM and 10 to 40 µM.
Regarding `COCc1cc(CNC(=O)c2nn(-c3cccc(Cl)c3)c3c2CCN(c2ccc4c(c2)CN(CCO)CC4)C3=O)[nH]n1` [Example 1156, 1-(3-chlorophenyl)-6-(2-(2-hydroxyethyl)-1,2,3,4-tetrahydroisoquinolin-7-yl)-N-((3-(methoxymethyl)-1H-pyrazol-5-yl)methyl)-7-oxo-4,5,6,7-tetrahydro-1H-pyrazolo[3,4-c]pyridine-3-carboxamide], the results for the IC50 (in test [1]; against FXa) were 100 to 300 nM and 10 to 40 µM, respectively.
Consider `Cc1cn(C)nc1CNC(=O)c1nn(-c2cccc(Cl)c2)c2c1CCN(c1ccc3c(c1)CN(CCO)CC3)C2=O` [Example 1157, 1-(3-chlorophenyl)-N-((1,4-dimethyl-1H-pyrazol-3-yl)methyl)-6-(2-(2-hydroxyethyl)-1,2,3,4-tetrahydroisoquinolin-7-yl)-7-oxo-4,5,6,7-tetrahydro-1H-pyrazolo[3,4-c]pyridine-3-carboxamide], for which the results for the 50% inhibitory concentration (IC50) (in test [1]; against FXa) were 10 to 100 nM and 10 to 40 µM, respectively.
For `CCN1Cc2cc(N3CCc4c(C(=O)NCc5cnccc5C)nn(-c5cccc(Cl)c5)c4C3=O)ccc2[C@@H](C)C1` [Example 1158, (R)-1-(3-chlorophenyl)-6-(2-ethyl-4-methyl-1,2,3,4-tetrahydroisoquinolin-7-yl)-N-((4-methylpyridin-3-yl)methyl)-7-oxo-4,5,6,7-tetrahydro-1H-pyrazolo[3,4-c]pyridine-3-carboxamide] the same measures were 10 to 100 nM and 10 to 40 µM.
Turning to `Cc1ccncc1CNC(=O)c1nn(-c2cccc(Cl)c2)c2c1CCN(c1ccc3c(c1)C(=O)N(C)CC3)C2=O` [Example 1159, 1-(3-Chlorophenyl)-6-(2-methyl-1-oxo-1,2,3,4-tetrahydroisoquinolin-7-yl)-N-((4-methylpyridin-3-yl)methyl)-7-oxo-4,5,6,7-tetrahydro-1H-pyrazolo[3,4-c]pyridine-3-carboxamide], the IC50 (as a rule, the concentration needed to halve the response being measured) in test [1] is 10 to 100 nM; against FXa, > 40 µM.
In the case of `COc1cccnc1CNC(=O)c1nn(-c2cccc(Cl)c2)c2c1CCN(c1ccc3c(c1)CN(CCO)CC3)C2=O` [Example 1160, 1-(3-chlorophenyl)-6-(2-(2-hydroxyethyl)-1,2,3,4-tetrahydroisoquinolin-7-yl)-N-((3-methoxypyridin-2-yl)methyl)-7-oxo-4,5,6,7-tetrahydro-1H-pyrazolo[3,4-c]pyridine-3-carboxamide], the IC50 in test [1] was 10 to 100 nM; at FXa it was > 40 µM.
For `O=C(NCc1ccncc1F)c1nn(-c2cccc(Cl)c2)c2c1CCN(c1ccc3c(c1)CN(CCO)CC3)C2=O` [Example 1161, 1-(3-chlorophenyl)-N-((3-fluoropyridin-4-yl)methyl)-6-(2-(2-hydroxyethyl)-1,2,3,4-tetrahydroisoquinolin-7-yl)-7-oxo-4,5,6,7-tetrahydro-1H-pyrazolo[3,4-c]pyridine-3-carboxamide] the same measures were 10 to 100 nM and > 40 µM.
Taken in the same sequence, the figures for `CS(=O)(=O)CCN1CCc2ccc(N3CCc4c(C(=O)NCC5CC5)nn(-c5cccc(Cl)c5)c4C3=O)cc2C1` [Example 1176, 1-(3-chlorophenyl)-N-(cyclopropylmethyl)-6-(2-(2-(methylsulfonyl)ethyl)-1,2,3,4-tetrahydroisoquinolin-7-yl)-7-oxo-4,5,6,7-tetrahydro-1H-pyrazolo[3,4-c]pyridine-3-carboxamide] were 300 to 1000 nM and > 40 µM.
For `Cc1ccncc1CNC(=O)c1nn(-c2cccc(Cl)c2)c2c1CCN(c1cccc(CN3CCCCC3)c1)C2=O` [Example 1177, 1-(3-chlorophenyl)-N-((4-methylpyridin-3-yl)methyl)-7-oxo-6-(3-(piperidin-1-ylmethyl)phenyl)-4,5,6,7-tetrahydro-1H-pyrazolo[3,4-c]pyridine-3-carboxamide] the same measures were 10 to 100 nM and > 40 µM.
For the compound `CN1CCc2ccc(N3CCc4c(C(=O)NC5COCC5O)nn(-c5cccc(Cl)c5)c4C3=O)cc2C1=O` (stereo not drawn) [Example 1179, 1-(3-chlorophenyl)-N-(4-hydroxytetrahydrofuran-3-yl)-6-(2-methyl-1-oxo-1,2,3,4-tetrahydroisoquinolin-7-yl)-7-oxo-4,5,6,7-tetrahydro-1H-pyrazolo[3,4-c]pyridine-3-carboxamide], the IC50 in test [1] was 300 to 1000 nM; at FXa it was > 40 µM.
As for `CN1CCc2ccc(N3CCc4c(C(=O)NC(CO)C5CCOC5)nn(-c5cccc(Cl)c5)c4C3=O)cc2C1=O` (stereo not drawn) [Example 1180, 1-(3-chlorophenyl)-N-(2-hydroxy-1-(tetrahydrofuran-3-yl)ethyl)-6-(2-methyl-1-oxo-1,2,3,4-tetrahydroisoquinolin-7-yl)-7-oxo-4,5,6,7-tetrahydro-1H-pyrazolo[3,4-c]pyridine-3-carboxamide], the IC50 in test [1] is 300 to 1000 nM; at FXa, > 40 µM.
As to `Cc1nnc(CNC(=O)c2nn(-c3cccc(Cl)c3)c3c2CCN(c2ccc4c(c2)C(=O)N(C)CC4)C3=O)s1` [Example 1181, 1-(3-chlorophenyl)-N-((5-methyl-1,3,4-thiadiazol-2-yl)methyl)-6-(2-methyl-1-oxo-1,2,3,4-tetrahydroisoquinolin-7-yl)-7-oxo-4,5,6,7-tetrahydro-1H-pyrazolo[3,4-c]pyridine-3-carboxamide], the IC50 in test [1] is 300 to 1000 nM; against FXa, > 40 µM.
As for `Cc1noc(C)c1CNC(=O)c1nn(-c2cccc(Cl)c2)c2c1CCN(c1ccc3c(c1)C(=O)N(C)CC3)C2=O` [Example 1185, 1-(3-chlorophenyl)-N-((3,5-dimethylisoxazol-4-yl)methyl)-6-(2-methyl-1-oxo-1,2,3,4-tetrahydroisoquinolin-7-yl)-7-oxo-4,5,6,7-tetrahydro-1H-pyrazolo[3,4-c]pyridine-3-carboxamide], the results for the IC50 (in test [1]; at FXa) were 300 to 1000 nM and > 40 µM, respectively.
In the case of `COc1cc(CNC(=O)c2nn(-c3cccc(Cl)c3)c3c2CCN(c2ccc4c(c2)C(=O)N(C)CC4)C3=O)nn1C` [Example 1186, 1-(3-chlorophenyl)-N-((5-methoxy-1-methyl-1H-pyrazol-3-yl)methyl)-6-(2-methyl-1-oxo-1,2,3,4-tetrahydroisoquinolin-7-yl)-7-oxo-4,5,6,7-tetrahydro-1H-pyrazolo[3,4-c]pyridine-3-carboxamide], the IC50 was in the range of 100 to 300 nM in test [1] and 10 to 40 µM against FXa.
